From US20240368113A1, “AMIDE COMPOUND AND USE THEREOF” (Chengdu Fendi Pharmaceutical Co. Ltd., priority 2021, published 2024) come the findings set out here.

One test deals with MV-4-11 cells. Put plainly: Inhibition of tumor cell proliferation (CellTiter-Glo). The class given is cell-based. The note with it: Homo sapiens, MV4-11, 72 h, read-out: IC50 of inhibitory activity of tumor cell proliferation. The method, then:
MV-4-11 cells were diluted with medium (RPM1640+10% FBS+1% PS) and plated at 4000 cells/well in a white-walled clear-bottom 96-well plate. MV-4-11 cells were plated and incubated in a 5% CO2, 37° C. incubator for 2 hours. Cells were treated with the indicated concentration of compound or DMSO (control), and placed in a 5% CO2, 37° C. incubator for 72 h after dosing. After the end of the culture, equilibrate at room temperature for 30 min, add 100 μl of CellTiter-Glo® Reagent to each well, and shake the microplate shaker for 2 min. After 10 min of incubation at room temperature, the luminescence was measured by a microplate reader, and the cell-free wells were used as the background wells. CC-90009 (celegen patent phase I) was used as a control, and its structural formula was as follows: 0
With `COP(=O)(OC)Oc1ccc(C#CC(=O)NCc2ccc3c(c2)CN(C2CCC(=O)NC2=O)C3=O)cc1` (centres unmarked) [Compound 80], the IC50 lay within 10 to 100 nM.

The same test, now with this note: Homo sapiens, MV4-11; MV-4-11 cells, 72 h, CellTiter-Glo; read-out: IC50 of inhibitory activity of tumor cell proliferation.
Consider `O=C(C#Cc1c(Cl)ccnc1Cl)NCc1ccc2c(c1)CN(C1CCC(=O)NC1=O)C2=O` (centres unmarked) [Compound 66], for which the IC50 was in the range of 1 to 10 nM.

As for `O=C(C#Cc1ccccc1C(=O)O)NCc1ccc2c(c1)CN(C1CCC(=O)NC1=O)C2=O` (centres unmarked) [Compound 75], the IC50 was > 100 nM.

With `CC1=C(C(=O)NCc2ccc3c(c2)CN(C2CCC(=O)NC2=O)C3=O)C(=O)c2ccccc21` (centres unmarked) [Compound 119], the IC50 is > 100 nM.

As to `Cc1ccc(C#CC(=O)NCc2ccc3c(c2)CN(C2CCC(=O)NC2=O)C3=O)cn1` (centres unmarked) [Compound 31], the IC50 lay in the range of 10 to 100 nM.

Consider `O=C(C#Cc1ccc(C(=O)O)cc1)NCc1ccc2c(c1)CN(C1CCC(=O)NC1=O)C2=O` (centres unmarked) [Compound 26], for which the IC50 is > 100 nM.

With `O=C(C#Cc1ccc(F)cc1F)NCc1ccc2c(c1)CN(C1CCC(=O)NC1=O)C2=O` (centres unmarked) [Compound 10], the IC50 is < 1 nM.

Turning to `Cn1ccc(C#CC(=O)NCc2ccc3c(c2)CN(C2CCC(=O)NC2=O)C3=O)n1` (centres unmarked) [Compound 35], the IC50 was in the range of 10 to 100 nM.

For the compound `O=C(C#CC1CCCCN1)NCc1ccc2c(c1)CN(C1CCC(=O)NC1=O)C2=O` (centres unmarked) [Compound 64], the IC50 is > 100 nM.

`Cc1c(C#CC(=O)NCc2ccc3c(c2)CN(C2CCC(=O)NC2=O)C3=O)cccc1C(=O)O` (centres unmarked) [Compound 92]: the IC50 was > 100 nM.

As for `O=C(C#Cc1cc(Cl)c(O)c(Cl)c1)NCc1ccc2c(c1)CN(C1CCC(=O)NC1=O)C2=O` (centres unmarked) [Compound 100], the IC50 is > 100 nM.

In the case of `O=C(C#Cc1cnccn1)NCc1ccc2c(c1)CN(C1CCC(=O)NC1=O)C2=O` (centres unmarked) [Compound 37], the IC50 is > 100 nM.

On to `O=C(C#Cc1ccncc1)NCc1ccc2c(c1)CN(C1CCC(=O)NC1=O)C2=O` (centres unmarked) [Compound 23], for which the IC50 is > 100 nM.

Consider `O=C(C#Cc1c(F)ccnc1F)NCc1ccc2c(c1)CN(C1CCC(=O)NC1=O)C2=O` (centres unmarked) [Compound 68], for which the IC50 lay within 10 to 100 nM.

In the case of `O=C(C#CC1CCCC1)NCc1ccc2c(c1)CN(C1CCC(=O)NC1=O)C2=O` (centres unmarked) [Compound 111], the IC50 fell in the range of 1 to 10 nM.

On to `O=C(C#Cc1cccc(Br)c1)NCc1ccc2c(c1)CN(C1CCC(=O)NC1=O)C2=O` (centres unmarked) [Compound 18], for which the IC50 was < 1 nM.

Consider `O=C(C#Cc1ccc2ncsc2c1)NCc1ccc2c(c1)CN(C1CCC(=O)NC1=O)C2=O` (centres unmarked) [Compound 120], for which the IC50 is 1 to 10 nM.

For the compound `CC(=O)c1ccccc1C#CC(=O)NCc1ccc2c(c1)CN(C1CCC(=O)NC1=O)C2=O` (centres unmarked) [Compound 116], the IC50 is 1 to 10 nM.

Regarding `Cn1cnc2cc(C#CC(=O)NCc3ccc4c(c3)CN(C3CCC(=O)NC3=O)C4=O)ccc21` (centres unmarked) [Compound 131], the IC50 lay in the range of 1 to 10 nM.

As to `O=C(C#Cc1ccc2ncncc2c1)NCc1ccc2c(c1)CN(C1CCC(=O)NC1=O)C2=O` (centres unmarked) [Compound 127], the IC50 is > 100 nM.

For `O=C(C#Cc1ccc([N+](=O)[O-])cc1F)NCc1ccc2c(c1)CN(C1CCC(=O)NC1=O)C2=O` (centres unmarked) [Compound 47], the IC50 is > 100 nM.

On to `O=C(O)CCC(=O)Oc1ccccc1C#CC(=O)NCc1ccc2c(c1)CN(C1CCC(=O)NC1=O)C2=O` (centres unmarked) [Compound 88], for which the IC50 is 1 to 10 nM.

On to `CC(C)(C)OC(=O)c1ccc(C#CC(=O)NCc2ccc3c(c2)CN(C2CCC(=O)NC2=O)C3=O)cc1` (centres unmarked) [Compound 25], for which the IC50 is < 1 nM.

On to `O=C1CCC(N2Cc3cc(CNC(=O)/C(F)=C/c4cccc(F)c4)ccc3C2=O)C(=O)N1` (centres unmarked) [Compound 14], for which the IC50 is > 100 nM.

`O=C(C#Cc1cccs1)NCc1ccc2c(c1)CN(C1CCC(=O)NC1=O)C2=O` (centres unmarked) [Compound 6]: the IC50 was < 1 nM.

On to `CC(C)(C)C(=O)OCOC(=O)c1ccccc1C#CC(=O)NCc1ccc2c(c1)CN(C1CCC(=O)NC1=O)C2=O` (centres unmarked) [Compound 77], for which the IC50 is > 100 nM.

On to `O=C(C#Cc1ccc2[nH]ncc2c1F)NCc1ccc2c(c1)CN(C1CCC(=O)NC1=O)C2=O` (centres unmarked) [Compound 130], for which the IC50 was 1 to 10 nM.

Consider `Nc1ccc(C#CC(=O)NCc2ccc3c(c2)CN(C2CCC(=O)NC2=O)C3=O)c(F)c1` (centres unmarked) [Compound 48], for which the IC50 is 1 to 10 nM.

In the case of `O=C(C#Cc1ccc(F)nc1)NCc1ccc2c(c1)CN(C1CCC(=O)NC1=O)C2=O` (centres unmarked) [Compound 38], the IC50 fell in the range of 1 to 10 nM.

For the compound `Nc1cc(C#CC(=O)NCc2ccc3c(c2)CN(C2CCC(=O)NC2=O)C3=O)ccc1F` (centres unmarked) [Compound 54], the IC50 is < 1 nM.

Regarding `CC(=O)OCOC(=O)c1ccccc1C#CC(=O)NCc1ccc2c(c1)CN(C1CCC(=O)NC1=O)C2=O` (centres unmarked) [Compound 96], the IC50 was > 100 nM.

As to `O=C(C#Cc1cccc(C(=O)O)c1)NCc1ccc2c(c1)CN(C1CCC(=O)NC1=O)C2=O` (centres unmarked) [Compound 76], the IC50 is > 100 nM.

With `O=C(C#Cc1ccc(F)c([N+](=O)[O-])c1)NCc1ccc2c(c1)CN(C1CCC(=O)NC1=O)C2=O` (centres unmarked) [Compound 53], the IC50 was 10 to 100 nM.

With `CC(=O)c1cccc(C#CC(=O)NCc2ccc3c(c2)CN(C2CCC(=O)NC2=O)C3=O)c1` (centres unmarked) [Compound 117], the IC50 is < 1 nM.

For the compound `Cc1ccc(C#CC(=O)NCc2ccc3c(c2)CN(C2CCC(=O)NC2=O)C3=O)s1` (centres unmarked) [Compound 36], the IC50 was < 1 nM.

Take `Cn1nccc1C#CC(=O)NCc1ccc2c(c1)CN(C1CCC(=O)NC1=O)C2=O` (centres unmarked) [Compound 44]: the IC50 is > 100 nM.

Take `O=C(O)CCC(=O)Oc1ccc(C#CC(=O)NCc2ccc3c(c2)CN(C2CCC(=O)NC2=O)C3=O)cc1` (centres unmarked) [Compound 86]: the IC50 was 10 to 100 nM.

For the compound `O=C(C#Cc1ccc(C(=O)O)cc1Cl)NCc1ccc2c(c1)CN(C1CCC(=O)NC1=O)C2=O` (centres unmarked) [Compound 103], the IC50 lay within 10 to 100 nM.

As for `O=C(C#Cc1cccc(O)c1)NCc1ccc2c(c1)CN(C1CCC(=O)NC1=O)C2=O` (centres unmarked) [Compound 19], the IC50 lay in the range of 1 to 10 nM.

Take `N#Cc1ncccc1C#CC(=O)NCc1ccc2c(c1)CN(C1CCC(=O)NC1=O)C2=O` (centres unmarked) [Compound 43]: the IC50 was > 100 nM.

Regarding `O=C(C#Cc1ccc(C(F)(F)F)nc1)NCc1ccc2c(c1)CN(C1CCC(=O)NC1=O)C2=O` (centres unmarked) [Compound 60], the IC50 was in the range of 10 to 100 nM.

For the compound `O=C(C#Cc1ccc2[nH]ccc2c1)NCc1ccc2c(c1)CN(C1CCC(=O)NC1=O)C2=O` (centres unmarked) [Compound 108], the IC50 is 1 to 10 nM.

On to `O=C(C#Cc1cc2cn[nH]c2cc1F)NCc1ccc2c(c1)CN(C1CCC(=O)NC1=O)C2=O` (centres unmarked) [Compound 129], for which the IC50 was in the range of 10 to 100 nM.

Take `O=C(C#Cc1ccc(-c2ccc([N+](=O)[O-])cc2)cc1)NCc1ccc2c(c1)CN(C1CCC(=O)NC1=O)C2=O` (centres unmarked) [Compound 55]: the IC50 was < 1 nM.

With `O=C(C#Cc1ccc(F)cc1[N+](=O)[O-])NCc1ccc2c(c1)CN(C1CCC(=O)NC1=O)C2=O` (centres unmarked) [Compound 49], the IC50 is 1 to 10 nM.

In the case of `O=C(C#Cc1c(O)cccc1Cl)NCc1ccc2c(c1)CN(C1CCC(=O)NC1=O)C2=O` (centres unmarked) [Compound 65], the IC50 was 1 to 10 nM.

Regarding `O=C(C#Cc1ccccc1O)NCc1ccc2c(c1)CN(C1CCC(=O)NC1=O)C2=O` (centres unmarked) [Compound 58], the IC50 was in the range of 1 to 10 nM.

Regarding `O=C(C#Cc1ccc2occc2c1)NCc1ccc2c(c1)CN(C1CCC(=O)NC1=O)C2=O` (centres unmarked) [Compound 102], the IC50 is < 1 nM.

On to `C[Si](C)(C)C#CC(=O)NCc1ccc2c(c1)CN(C1CCC(=O)NC1=O)C2=O` (centres unmarked) [Compound 20], for which the IC50 is > 100 nM.

For `O=C(C#Cc1cc2ccccc2[nH]1)NCc1ccc2c(c1)CN(C1CCC(=O)NC1=O)C2=O` (centres unmarked) [Compound 110], the IC50 fell in the range of 1 to 10 nM.

With `CC(C)(C)C(=O)OCOC(=O)c1cccc(C#CC(=O)NCc2ccc3c(c2)CN(C2CCC(=O)NC2=O)C3=O)c1` (centres unmarked) [Compound 78], the IC50 was > 100 nM.

`O=C(C#Cc1cccnc1)NCc1ccc2c(c1)CN(C1CCC(=O)NC1=O)C2=O` (centres unmarked) [Compound 16]: the IC50 fell in the range of 10 to 100 nM.

Consider `Cc1cc(O)cc(C)c1C#CC(=O)NCc1ccc2c(c1)CN(C1CCC(=O)NC1=O)C2=O` (centres unmarked) [Compound 105], for which the IC50 fell in the range of 1 to 10 nM.

As to `O=C(C#Cc1ccc(Cl)cc1)NCc1ccc2c(c1)CN(C1CCC(=O)NC1=O)C2=O` (centres unmarked) [Compound 7], the IC50 is < 1 nM.

On to `Cc1ccc(C#CC(=O)NCc2ccc3c(c2)CN(C2CCC(=O)NC2=O)C3=O)cc1[N+](=O)[O-]` (centres unmarked) [Compound 51], for which the IC50 was < 1 nM.

Take `O=C(C#CCO)NCc1ccc2c(c1)CN(C1CCC(=O)NC1=O)C2=O` (centres unmarked) [Compound 22]: the IC50 was > 100 nM.

With `N#Cc1ccc(C#CC(=O)NCc2ccc3c(c2)CN(C2CCC(=O)NC2=O)C3=O)cn1` (centres unmarked) [Compound 42], the IC50 was > 100 nM.

Take `Cn1cnc(C#CC(=O)NCc2ccc3c(c2)CN(C2CCC(=O)NC2=O)C3=O)c1` (centres unmarked) [Compound 33]: the IC50 is > 100 nM.

`COc1ccc(C#CC(=O)NCc2ccc3c(c2)CN(C2CCC(=O)NC2=O)C3=O)nc1` (centres unmarked) [Compound 30]: the IC50 lay within 1 to 10 nM.

Turning to `O=C(C#Cc1nc2ccccc2s1)NCc1ccc2c(c1)CN(C1CCC(=O)NC1=O)C2=O` (centres unmarked) [Compound 106], the IC50 fell in the range of 10 to 100 nM.

Take `Nc1ccc(C#CC(=O)NCc2ccc3c(c2)CN(C2CCC(=O)NC2=O)C3=O)cc1` (centres unmarked) [Compound 124]: the IC50 was 10 to 100 nM.

On to `O=C(C#Cc1ccc(O)cc1)NCc1ccc2c(c1)CN(C1CCC(=O)NC1=O)C2=O` (centres unmarked) [Compound 57], for which the IC50 fell in the range of 10 to 100 nM.
